Experimental data as given in ChEMBL document CHEMBL1121748, “Antimycotic imidazoles. 5. Synthesis and antimycotic properties of 1-[[2-aryl-4-(arylalkyl)-1,3-dioxolan-2-yl]methyl]-1H-imidazoles” (1981).

Legend:
Aspergillus fumigatus = experiment: Antifungal activity against Aspergillus fumigatus; assay type: functional
Candida tropicalis = experiment: Antifungal activity against Candida tropicalis; assay type: functional
[1] = system: Erysipelothrix rhusiopathiae; experiment: Antibacterial activity against Erysipelothrix insidiosa; assay type: functional
Microsporum canis = experiment: Antifungal activity against Microsporum canis; assay type: functional
Mucor = experiment: Antifungal activity against Mucor species; assay type: functional
Phialophora verrucosa = experiment: Antifungal activity against Phialophora verrucosa; assay type: functional
Saprolegnia = experiment: Antifungal activity against Saprolegnia species; assay type: functional
Sporothrix schenckii = experiment: Antifungal activity against Sporothrix schenck ii; assay type: functional
Streptococcus pyogenes = experiment: Antibacterial activity against Streptococcus pyogenes; assay type: functional
[2] = system: Staphylococcus haemolyticus; experiment: Antibacterial against Staphylococcus hemolyticus; assay type: functional
Trichophyton benhamiae = experiment: Antifungal activity against Trichophyton mentagrophytes; assay type: functional, trychophyton mentagrophytes
[3] = Ratio of animals cured to that of animals infected, tested in vivo for antifungal activity against cutaneous candidosis in guinea pig; 1/2; assay type: functional
Trichophyton rubrum = experiment: Antifungal activity against Trichophyton rubrum; assay type: functional
Cryptococcus neoformans = experiment: Antifungal activity against Cryptococcus neoformans; assay type: functional
Candida albicans = experiment: Antifungal activity against Candida albicans; assay type: functional
[4] = Ratio of animals cured to that of animals infected, tested in vivo for antifungal activity against vaginal candidosis in rat; 2/2
[5] = Ratio of animals cured to that of animals […], Tested in vivo for antifungal activity against vaginal candidosis in rat; 0/2; assay type: functional
[6] = Ratio of animals cured to that of animals infected, tested in vivo for antifungal activity against cutaneous candidosis in guinea pig; 2/2; assay type: functional; also: test concentration or dose not given here
[7] = Ratio of animals cured to that of animals infected, tested in vivo for antifungal activity against cutaneous candidosis in guinea pig; 3/4; assay type: functional
[8] = Ratio of animals cured to that of animals infected, tested in vivo for antifungal activity against vaginal candidosis in rat; 0/2; also: test concentration or dose not given here
[9] = Ratio of animals cured to that of animals […], Tested in vivo for antifungal activity against vaginal candidosis in rat; 1/2; assay type: functional

SMILES	Inhibition (Aspergillus fumigatus)	Inhibition (Candida tropicalis)	Inhibition [1]	Inhibition (Microsporum canis)	Inhibition (Mucor)	Inhibition (Phialophora verrucosa)	Inhibition (Saprolegnia)	Inhibition (Sporothrix schenckii)	Inhibition (Streptococcus pyogenes)	Inhibition [2]	Inhibition (Trichophyton benhamiae)	Inhibition (Trichophyton rubrum)	Inhibition (Cryptococcus neoformans)	Inhibition (Candida albicans)	Ratio [6]	further results
Clc1ccc(C2COC(Cn3ccnc3)(c3ccc(Cl)cc3Cl)O2)cc1 (centres undefined)	<1 µg/mL	10 µg/mL	1 µg/mL	<1 µg/mL	10 µg/mL	100 µg/mL	100 µg/mL	10 µg/mL	1 µg/mL	10 µg/mL	<1 µg/mL	<1 µg/mL	<1 µg/mL	100 µg/mL	–	Ratio [3]: 1
Clc1ccc(C2COC(Cn3ccnc3)(c3ccc(Cl)cc3Cl)O2)c(Cl)c1 (centres undefined)	<1 µg/mL	>100 µg/mL	<1 µg/mL	10 µg/mL	10 µg/mL	100 µg/mL	100 µg/mL	10 µg/mL	<1 µg/mL	10 µg/mL	<1 µg/mL	<1 µg/mL	<1 µg/mL	>100 µg/mL	–	Ratio [4]: 2
Fc1ccc(C2COC(Cn3ccnc3)(c3ccc(Cl)cc3)O2)cc1 (centres undefined)	<1 µg/mL	100 µg/mL	100 µg/mL	<1 µg/mL	10 µg/mL	100 µg/mL	100 µg/mL	10 µg/mL	10 µg/mL	>100 µg/mL	<1 µg/mL	<1 µg/mL	10 µg/mL	100 µg/mL	1	Ratio [5]: 0
Clc1ccc(C2(Cn3ccnc3)OCC(c3ccc(Br)cc3)O2)c(Cl)c1 (centres undefined)	<1 µg/mL	10 µg/mL	1 µg/mL	<1 µg/mL	10 µg/mL	100 µg/mL	100 µg/mL	10 µg/mL	1 µg/mL	10 µg/mL	<1 µg/mL	<1 µg/mL	<1 µg/mL	100 µg/mL	–	Ratio [7]: 0.75; Ratio [8]: 0
Clc1ccc(C2(Cn3ccnc3)OCC(c3ccccc3Cl)O2)cc1 (centres undefined)	100 µg/mL	>100 µg/mL	1 µg/mL	10 µg/mL	100 µg/mL	100 µg/mL	10 µg/mL	>1 µg/mL	1 µg/mL	10 µg/mL	<1 µg/mL	<1 µg/mL	10 µg/mL	>100 µg/mL	2	Ratio [9]: 1
Clc1ccc(C2(Cn3ccnc3)OCC(Cc3ccc(-c4ccccc4)cc3)O2)c(Cl)c1 (centres undefined)	10 µg/mL	>100 µg/mL	1 µg/mL	10 µg/mL	>100 µg/mL	>100 µg/mL	100 µg/mL	100 µg/mL	1 µg/mL	10 µg/mL	<1 µg/mL	<1 µg/mL	100 µg/mL	>100 µg/mL	–	Ratio [5]: 0
Clc1ccc(CC2COC(Cn3ccnc3)(c3ccc(Cl)cc3Cl)O2)cc1 (centres undefined)	10 µg/mL	10 µg/mL	<1 µg/mL	<1 µg/mL	10 µg/mL	100 µg/mL	100 µg/mL	10 µg/mL	100 µg/mL	10 µg/mL	<1 µg/mL	<1 µg/mL	1 µg/mL	10 µg/mL	2	Ratio [8]: 0
